Data as given in publication PMC10675526, “Development of a Novel Peptide with Antimicrobial and Mineralising Properties for Caries Management” (Pharmaceutics, 2023).
Bridge positions count the residues as written; N and C are the ends. Peptide text beside a SMILES is read from it. * marks the point of attachment. Galloyl = O=C(c1cc(O)c(O)c(O)c1)*

How the values were obtained:
[1] = Mineralising effects on enamel blocks after pH cycling (SEM-EDS, Micro-CT, XRD); design: species or system human; conditions: sound enamel treated twice daily with 160 μM, n = 8 per group, mean ± SD; for Calcium-to-phosphate molar ratio: 8 days pH cycling (16 h pH 4.5, 8 h pH 7.0), SEM-EDS; for Mineral loss / Lesion depth: 8 days pH cycling, Micro-CT; for Mineral loss: MDV control area − MDV demineralised area
Description: A total of 40 enamel blocks were prepared from extracted sound human molars. The pH-cycling procedure (16 h demineralisation at pH 4.5 and 8 h remineralisation at pH 7.0) was performed on enamel blocks for 8 days, using solutions that contained calcium and phosphate. The enamel blocks from the same tooth were treated twice daily with 160 μM GAPI (GAPI Group), 160 μM GA (GA Group), 160 μM PI (PI Group) and sterile deionised water (Water Group). The structure of the enamel surface was examined using SEM (n = 8 per group). The elemental analysis of enamel surface was conducted using affiliated energy-dispersive X-ray spectroscopy (EDS). The calcium-to-phosphorus molar ratio was calculated.
The mineral loss and lesion depth on the enamel blocks were assessed using microcomputed tomography (Micro-CT) (1172, SkyScan, Antwerp, Belgium) (n = 8 per group). The parameters of Micro-CT were 80 kV voltage and 100 μA current with a voxel size of 12 μm^3. The image was reconstructed with NRecon software 1.7.4.6 (SkyScan, Antwerp, Belgium) and analysed using CTAn 1.20.3.0 (SkyScan, Antwerp, Belgium) to determine the lesion depth and mineral density values (MDVs, gHApcm^−3). The mineral loss = MDV of the control area − MDV of the demineralised area.
The diffraction patterns of the enamel blocks were evaluated using X-ray diffraction analysis (XRD) (Rigaku SmartLab 9 kW, […]) (n = 2 per group).

[2] = system: S. mutans in three-species biofilm; test: Growth kinetics of multiple-species biofilm, PMA-qPCR; format: cell-based, Streptococcus mutans
Description: A multiple-species cariogenic biofilm consisting of S. mutans, L. casei and C. albicans was cultured following a previous protocol. The architecture of the multiple-species biofilm with or without GAPI treatment was assessed using scanning electron microscopy (SEM) and confocal laser scanning microscopy (CLSM). Propidium iodide and […] (DAPI), which highlight bacterial cells, and Concanavalin A (ConA), which labels C. albicans, were used to stain the multiple-species biofilm. The growth kinetics of the multiple-species biofilm were analysed using propidium monoazide–quantitative polymerase chain reaction (PMA-qPCR) (Supplementary Material S1).

[3] = Stability in human saliva (HPLC); format: in vitro ADME; conditions: 37 °C
Description: The stability of peptides in human saliva (collected from six individual healthy volunteers; three males and three females; minimum age, 29; and maximum age, 36) was investigated by testing the remaining peptide concentration via HPLC system (Waters Pacific Pte Ltd., Singapore). The test was processed following a previous experimental protocol. After centrifuging the saliva and collecting the supernatant, GAPI was added to the sample and incubated at 37 °C for 60 min. A 1 mL sample was taken and analysed using HPLC system.

SMILES	Calcium-to-phosphate molar ratio [1]	Mineral loss [1]	Lesion depth [1]	reduction of S. mutans in biofilm versus untreated [2]	time stable in saliva [3]
CC(C)[C@@H]1NC(=O)[C@H](CCCNC(=N)N)NC(=O)[C@H](Cc2ccccc2)NC(=O)[C@@H](NC(=O)[C@H](Cc2c[nH]c3ccccc23)NC(=O)[C@H](CCCNC(=N)N)NC(=O)[C@H](CCCNC(=N)N)NC(=O)c2cc(O)c(O)c(O)c2)CSSC[C@@H](C(=O)N[C@@H](CCCNC(=N)N)C(=O)O)NC(=O)[C@H](CCCCN)NC(=O)[C@H](CCCNC(=N)N)NC(=O)[C@H](Cc2ccc(O)cc2)NC(=O)[C@@H]2CSSC[C@H](NC1=O)C(=O)N[C@@H](Cc1ccc(O)cc1)C(=O)N[C@@H](CCCNC(=N)N)C(=O)NCC(=O)N[C@@H](Cc1ccccc1)C(=O)N2 [GAPI, Gallic-Acid-Polyphemusin-I] (Galloyl-RRWCFRVCYRGFCYRKCR-OH; disulfide 4-17, 8-13; C-terminus assumed)	1.81 ± 0.05	0.89 ± 0.20 gHApcm^−3	64 ± 7 µm	more than 10 fold	–
CC(C)[C@@H]1NC(=O)[C@H](CCCN=C(N)N)NC(=O)[C@H](Cc2ccccc2)NC(=O)[C@@H](NC(=O)[C@H](Cc2c[nH]c3ccccc23)NC(=O)[C@H](CCCN=C(N)N)NC(=O)[C@H](CCCN=C(N)N)NC(=O)c2cc(O)c(O)c(O)c2)CSSC[C@@H](C(=O)N[C@@H](CCCN=C(N)N)C(=O)O)NC(=O)[C@H](CCCCN)NC(=O)[C@H](CCCN=C(N)N)NC(=O)[C@H](Cc2ccc(O)cc2)NC(=O)[C@@H]2CSSC[C@H](NC1=O)C(=O)N[C@@H](Cc1ccc(O)cc1)C(=O)N[C@@H](CCCN=C(N)N)C(=O)NCC(=O)N[C@@H](Cc1ccccc1)C(=O)N2 [GAPI, Gallic-Acid-Polyphemusin-I] (Galloyl-RRWCFRVCYRGFCYRKCR-OH; disulfide 4-17, 8-13)	–	–	–	–	at least 60 min
O=C(O)c1cc(O)c(O)c(O)c1 [GA, gallic acid]	1.82 ± 0.08	0.88 ± 0.24 gHApcm^−3	62 ± 12 µm	–	–
CC(C)[C@@H]1NC(=O)[C@H](CCCNC(=N)N)NC(=O)[C@H](Cc2ccccc2)NC(=O)[C@@H](NC(=O)[C@H](Cc2c[nH]c3ccccc23)NC(=O)[C@H](CCCNC(=N)N)NC(=O)[C@@H](N)CCCNC(=N)N)CSSC[C@@H](C(=O)N[C@@H](CCCNC(=N)N)C(=O)O)NC(=O)[C@H](CCCCN)NC(=O)[C@H](CCCNC(=N)N)NC(=O)[C@H](Cc2ccc(O)cc2)NC(=O)[C@@H]2CSSC[C@H](NC1=O)C(=O)N[C@@H](Cc1ccc(O)cc1)C(=O)N[C@@H](CCCNC(=N)N)C(=O)NCC(=O)N[C@@H](Cc1ccccc1)C(=O)N2 [PI, Polyphemusin I] (H-RRWCFRVCYRGFCYRKCR-OH; disulfide 4-17, 8-13; N-terminus and C-terminus assumed)	1.70 ± 0.06	1.32 ± 0.26 gHApcm^−3	96 ± 9 µm	–	–
